{"source": "paper PMC5674494", "about": "“Use of Cyclic Backbone NGR-Based SPECT to Increase Efficacy of Postmyocardial Infarction Angiogenesis Imaging” (Contrast Media & Molecular Imaging, 2017)", "key": {"[1]": {"parameters": "species or system Swiss mice", "conditions": "mouse, in vivo", "experimental": "(§1) In 10–12-week-old male Swiss mice, we induced MI by ligation of the left anterior descending coronary artery (LAD) as described before to test coNGR (n = 5) or co(NGR)4 (n = 8). A group of sham-operated Swiss mice (n = 5) was used as control. SPECT imaging was performed 7 days after MI or sham surgery. All animals were held under the guidelines of the animal care facility (Maastricht University). All animal experiments were approved by the Committee for Animal Welfare of Maastricht University. After imaging, the vital organs were harvested and kept for gamma-counting (Wallac Wizard, Turku, Finland). Acquired data were expressed as percentage injected dose per gram tissue (% ID/g)."}, "[2]": {"target": "T1, CD13 (Mus musculus, UniProt P97449)", "T1 construct": "the level of CD13 expression was markedly higher in the infarcted myocardium of MI animals; from tissue; host or cells: heart (myocardium) of living Swiss mice, 7 days after MI", "T1 sequence (P97449 1-966)": "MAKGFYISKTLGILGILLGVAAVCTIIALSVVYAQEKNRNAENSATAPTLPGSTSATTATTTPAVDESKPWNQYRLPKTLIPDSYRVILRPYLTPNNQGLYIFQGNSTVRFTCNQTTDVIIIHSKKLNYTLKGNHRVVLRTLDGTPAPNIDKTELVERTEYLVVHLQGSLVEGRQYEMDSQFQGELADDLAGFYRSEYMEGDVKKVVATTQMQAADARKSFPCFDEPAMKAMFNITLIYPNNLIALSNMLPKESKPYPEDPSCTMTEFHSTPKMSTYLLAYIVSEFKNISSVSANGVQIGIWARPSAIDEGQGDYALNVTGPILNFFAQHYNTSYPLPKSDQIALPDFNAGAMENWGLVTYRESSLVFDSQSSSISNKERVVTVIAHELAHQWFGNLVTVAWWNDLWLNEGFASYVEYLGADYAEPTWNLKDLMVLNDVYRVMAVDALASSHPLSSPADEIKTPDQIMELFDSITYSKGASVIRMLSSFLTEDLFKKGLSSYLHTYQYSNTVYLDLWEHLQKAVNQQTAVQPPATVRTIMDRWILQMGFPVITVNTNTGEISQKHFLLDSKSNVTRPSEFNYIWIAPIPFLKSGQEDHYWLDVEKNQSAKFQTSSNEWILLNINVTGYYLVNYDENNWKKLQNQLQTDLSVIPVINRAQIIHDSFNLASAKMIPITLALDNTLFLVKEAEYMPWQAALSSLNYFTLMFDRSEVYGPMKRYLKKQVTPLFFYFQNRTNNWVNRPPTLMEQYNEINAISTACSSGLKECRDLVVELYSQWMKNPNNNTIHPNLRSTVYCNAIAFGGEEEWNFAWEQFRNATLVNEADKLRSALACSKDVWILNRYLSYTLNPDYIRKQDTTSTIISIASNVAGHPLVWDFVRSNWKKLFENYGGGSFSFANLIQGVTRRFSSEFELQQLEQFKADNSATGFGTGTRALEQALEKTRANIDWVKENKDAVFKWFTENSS", "assay": "Dual-isotope micro-SPECT, SUV of 111In-labeled NGR tracers in heart segments of MI mice", "format": "in vivo, Swiss mice", "conditions": "MI mice 7 days after LAD ligation, mean ± SEM", "experimental": "as §1, with “University.” for “University. After imaging, the vital organs were harvested and kept for gamma-counting (Wallac Wizard, Turku, Finland). Acquired data were expressed as percentage injected dose per gram tissue (% ID/g).”\nMice were anesthetized with isoflurane (induction 2.5%; maintenance 1.5%), a catheter was placed in a tail vein, and animals were positioned in the SPECT camera (MILabs, Utrecht, The Netherlands). Prior to image acquisition, a bolus injection of ^99mTc-sestamibi and ^111In-coNGR or ^111In-co(NGR)4 was given intravenously (i.v.) in a maximum volume of 200 µL. Table S1 in Supplementary Material available online at https://doi.org/10.1155/2017/8638549 provides an overview of the average injected dose. Immediately after injection, 4 consecutive time frames of 15 min each were acquired. For image quantification we used the last of these frames.\nAcquired list mode data was reconstructed using MILabs reconstruction software (version 2.51) employing the POS-EM algorithm (6 iterations and 16 subsets, reconstructed at a voxel size of 0.4 mm). ^99mTc and ^111In images were reconstructed by selecting photo peak and background energy levels as described before.\nTo allow quantification of imaging agent uptake, in vivo isotope-specific conversion factors (CF) were determined for the 0.6 mm collimator in a representative phantom with a known activity. Using the previously described method the following conversion factors (CF), CF99mTc 612 MBq/mL and CF111In 643 MBq/mL, were found.\nPMOD 3.7 cardiac tool PCARD (PMOD technologies, Zürich, Switzerland) was used to segment the heart in the 17-segment model. Uptake per segment was subsequently expressed as a mean standardized uptake value (SUVmean), also using the previously described method. For body weight, we assumed that 1 g equalled 1 mL."}, "[3]": {"assay": "Octanol/water partition coefficient (logP)", "format": "physicochemical", "conditions": "111In-labeled tracer, separate experiment 2 of 3, N = 3, method as ref 22", "experimental": "The logP value of each compound was determined in three separate experiments as described previously."}, "[4]": {"assay": "in vitro", "format": "in vitro ADME", "conditions": "human, whole blood", "experimental": "^111[…], or ^111In-co(NGR)4 was added to […] human blood in heparin (BD Biosciences, […], The Netherlands). Blood stability was tested at 0, 10, 30, and 50 min. For each time point imaging agents were separated from blood cells and proteins by adding 0.5 mL MeCN (VWR International BV, Breda, The Netherlands) to 0.5 mL blood sample followed by centrifugation (2,000 ×g, 3 min). Supernatant samples were analyzed by HPLC using the above-mentioned method."}, "[5]": {"conditions": "111In tracer i.v., last of 4 15-min SPECT frames, SUVmean, 17-segment model, n = 5 coNGR, n = 8 co(NGR)4"}, "[6]": {"conditions": "111In-labeled tracer i.v., last of 4 consecutive 15 min SPECT frames"}}}
{"smiles": "N=C(N)NCCC[C@@H]1NC(=O)CNC(=O)[C@H](CC(N)=O)NC(=O)[C@H](CSC2CC(=O)N(CC3CCC(C(=O)NCCCC[C@H](NC(=O)C4CCC(CN5C(=O)CC(SC[C@@H]6NC(=O)CNC(=O)[C@H](CCCNC(=N)N)NC(=O)CNC(=O)[C@H](CC(N)=O)NC6=O)C5=O)CC4)C(=O)NCCCC[C@H](NC(=O)[C@H](CCCCNC(=O)C4CCC(CN5C(=O)CC(SC[C@@H]6NC(=O)CNC(=O)[C@H](CCCNC(=N)N)NC(=O)CNC(=O)[C@H](CC(N)=O)NC6=O)C5=O)CC4)NC(=O)C4CCC(CN5C(=O)CC(SC[C@@H]6NC(=O)CNC(=O)[C@H](CCCNC(=N)N)NC(=O)CNC(=O)[C@H](CC(N)=O)NC6=O)C5=O)CC4)C(=O)N[C@@H](CCCCNC(=O)[C@@H](N)CSC4CC(=O)N(CC5CCC(C(=O)NCCCCC(C(=O)O)N(CCN(CC(=O)O)CC(=O)O)CCN(CC(=O)O)CC(=O)O)CC5)C4=O)C(N)=O)CC3)C2=O)NC(=O)CNC1=O", "note": "(some centres unmarked) [co(NGR)4]", "values": [{"measurement": "kidney uptake", "setting": "[1]", "result": "Substantial kidney uptake"}, {"measurement": "urinary excretion", "setting": "[1]; iv", "result": "54.9 ± 9.1", "unit": "% ID/g"}, {"measurement": "SUV of NGR imaging agent, segment 1. Basal anterior", "setting": "[2]; [5]", "result": "0.37 ± 0.06"}, {"measurement": "SUV of NGR imaging agent, segment 2. Basal anteroseptal", "setting": "[2]; [5]", "result": "0.37 ± 0.05"}, {"measurement": "SUV of NGR imaging agent, segment 3. Basal inferoseptal", "setting": "[2]; [5]", "result": "0.40 ± 0.05"}, {"measurement": "SUV of NGR imaging agent, segment 4. Basal inferior", "setting": "[2]; [5]", "result": "0.41 ± 0.06"}, {"measurement": "SUV of NGR imaging agent, segment 5. Basal inferolateral", "setting": "[2]; [5]", "result": "0.46 ± 0.07"}, {"measurement": "SUV of NGR imaging agent, segment 6. Basal anterolateral", "setting": "[2]; [5]", "result": "0.40 ± 0.07"}, {"measurement": "SUV of NGR imaging agent, segment 7. Mid anterior", "setting": "[2]; [5]", "result": "0.32 ± 0.04"}, {"measurement": "SUV of NGR imaging agent, segment 8. Mid anteroseptal", "setting": "[2]; [5]", "result": "0.36 ± 0.03"}, {"measurement": "SUV of NGR imaging agent, segment 9. Mid inferoseptal", "setting": "[2]; [5]", "result": "0.59 ± 0.06"}, {"measurement": "SUV of NGR imaging agent, segment 10. Mid inferior", "setting": "[2]; [5]", "result": "0.56 ± 0.08"}, {"measurement": "SUV of NGR imaging agent, segment 11. Mid inferolateral", "setting": "[2]; [5]", "result": "0.44 ± 0.07"}, {"measurement": "SUV of NGR imaging agent, segment 12. Mid anterolateral", "setting": "[2]; [5]", "result": "0.40 ± 0.05"}, {"measurement": "SUV of NGR imaging agent, segment 13. Apical anterior", "setting": "[2]; [5]", "result": "0.54 ± 0.07"}, {"measurement": "SUV of NGR imaging agent, segment 14. Apical septal", "setting": "[2]; [5]", "result": "0.80 ± 0.09"}, {"measurement": "SUV of NGR imaging agent, segment 15. Apical inferior", "setting": "[2]; [5]", "result": "0.82 ± 0.08"}, {"measurement": "SUV of NGR imaging agent, segment 16. Apical lateral", "setting": "[2]; [5]", "result": "0.54 ± 0.06"}, {"measurement": "SUV of NGR imaging agent, segment 17. Apex", "setting": "[2]; [5]", "result": "0.76 ± 0.10"}, {"measurement": "SUV in segments affected by MI", "setting": "[2]; [6]", "result": "0.57 ± 0.03"}, {"measurement": "SUV in segments not affected by MI", "setting": "[2]; [6]", "result": "0.43 ± 0.02"}, {"measurement": "logP2", "setting": "[3]", "result": "−3.64 ± 0.03"}, {"measurement": "remaining at 50 min", "setting": "[4]", "result": 25.3, "unit": "%"}]}
